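Each compound was tested at five concentrations against cells in 96-well plates for 48 hours. At the TGI there is no net growth.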
Assays:
Experiment in all cases: growth of human tumour cells (NCI), 48 h
[1] = system: U251 CNS
[2] = system: SK-MEL-5 melanoma
[3] = system: ACHN renal
[4] = system: NCI-H23 lung
[5] = system: T-47D breast
[6] = system: HCT-116 colon
[7] = system: A498 renal
[8] = system: RXF 393 renal
[9] = system: HOP-92 NSCLC
[10] = system: A549 NSCLC
[11] = system: K-562 leukemia
[12] = system: MOLT-4 leukemia
[13] = system: EKVX NSCLC
[14] = system: SW-620 colon
[15] = system: MDA-N
[16] = system: SK-OV-3 ovarian
[17] = system: PC-3 prostate
[18] = system: MDA-MB-435
[19] = system: NCI-H460 lung

Compound `CCOC(=O)C(O)(C(=O)OCC)c1cc(C(C)(C)C)c(O)c(C(C)(C)C)c1` has a TGI [1] of over 100 µM, a TGI [2] of 32.9 µM and a TGI [3] of over 100 µM. The TGI [4] was over 100 µM, the TGI [5] was over 100 µM and the TGI [6] was over 100 µM. For the same compound, the TGI [7] was over 100 µM, the TGI [8] was 77.1 µM and the TGI [9] was over 100 µM. The TGI [10] was over 100 µM, the TGI [11] was over 100 µM and the TGI [12] was over 100 µM. The TGI [13] was over 100 µM, the TGI [14] was over 100 µM and the TGI [15] was over 100 µM. For the same compound, the TGI [16] was over 100 µM, the TGI [17] was over 100 µM and the TGI [18] was over 100 µM.
`CN(C)c1cccc2c1C(=O)C=CC21CCc2ccc(N(C)C)c3c(N(C)C)ccc1c23` (stereo not drawn) showed a TGI [2] of 30.1 µM, a TGI [3] of 26.2 µM and a TGI [4] of 37.4 µM. For the same compound, the TGI [5] was over 100 µM, the TGI [6] was 22.9 µM and the TGI [7] was 15.3 µM. It also gave a TGI [8] of 20.8 µM, a TGI [9] of 41.8 µM and a TGI [10] of 42.3 µM. The TGI [11] was 24.2 µM, the TGI [12] was 47 µM and the TGI [13] was 63.1 µM. The TGI [14] was 35.6 µM, the TGI [15] was 28.6 µM and the TGI [16] was 27 µM. For the same compound, the TGI [17] was 27.4 µM, the TGI [18] was 28.6 µM and the TGI [19] was 28.7 µM.
Work on `CC[C@H](C)C1=C(O)[N@+]2([O-])Oc3ccc(-c4c(O)c(O)c(-c5ccc(O)cc5)c(OC(C)=O)c4OC(C)=O)cc3O[C@]2([C@@H](C)CC)C(=O)N1O` yielded a TGI [1] of over 50 µM, a TGI [2] of over 50 µM and a TGI [3] of over 50 µM. It also gave a TGI [4] of over 50 µM, a TGI [5] of over 50 µM and a TGI [6] of 20.2 µM. It also gave a TGI [7] of over 50 µM, a TGI [8] of over 50 µM and a TGI [9] of 32.1 µM. It also gave a TGI [10] of over 50 µM, a TGI [11] of over 50 µM and a TGI [12] of over 50 µM. The TGI [13] was over 50 µM, the TGI [14] was over 50 µM and the TGI [15] was over 50 µM. For the same compound, the TGI [16] was 48 µM, the TGI [17] was over 50 µM and the TGI [18] was over 50 µM. For the same compound, the TGI [19] was over 50 µM.
`CC[P+]1(c2ccccc2)[C@@H](C)CC[C@@H]1C` gave a TGI [1] of over 100 µM, a TGI [2] of over 100 µM and a TGI [3] of over 100 µM. It also gave a TGI [4] of over 100 µM, a TGI [5] of over 100 µM and a TGI [6] of over 100 µM. The TGI [7] was over 100 µM, the TGI [8] was over 100 µM and the TGI [9] was over 100 µM. For the same compound, the TGI [10] was over 100 µM, the TGI [11] was over 100 µM and the TGI [12] was over 100 µM. The TGI [13] was over 100 µM, the TGI [14] was over 100 µM and the TGI [15] was over 100 µM. It also gave a TGI [16] of over 100 µM, a TGI [17] of over 100 µM and a TGI [18] of over 100 µM. For the same compound, the TGI [19] was over 100 µM.
For `C(=Nc1ccc(-c2nc3ccccc3[nH]2)cc1)c1ccco1`, the TGI [2] was over 100 µM, the TGI [3] was over 100 µM and the TGI [4] was over 100 µM. It also gave a TGI [5] of over 100 µM, a TGI [6] of over 100 µM and a TGI [7] of over 100 µM. For the same compound, the TGI [8] was over 100 µM, the TGI [9] was over 100 µM and the TGI [10] was over 100 µM. For the same compound, the TGI [11] was over 100 µM, the TGI [12] was over 100 µM and the TGI [13] was over 100 µM. For the same compound, the TGI [14] was over 100 µM, the TGI [15] was over 100 µM and the TGI [17] was over 100 µM. It also gave a TGI [18] of over 100 µM.
In the case of `CC(C)(C)OC(=O)Cn1ncn(NC(=O)Cc2ccccc2)c1=O`, the TGI [1] is reported as over 10 µM, the TGI [2] is reported as over 10 µM and the TGI [3] is reported as over 10 µM. It also gave a TGI [4] of over 10 µM, a TGI [5] of over 10 µM and a TGI [6] of over 10 µM. For the same compound, the TGI [7] was over 10 µM, the TGI [9] was over 10 µM and the TGI [10] was over 10 µM. The TGI [11] was over 10 µM, the TGI [12] was over 10 µM and the TGI [13] was over 10 µM. The TGI [14] was over 10 µM, the TGI [15] was over 10 µM and the TGI [16] was over 10 µM. For the same compound, the TGI [17] was over 10 µM, the TGI [18] was over 10 µM and the TGI [19] was over 10 µM.
In the case of `CCOC(=O)CN1CC(C2=C(O)CN(CC(=O)OCC)C2=O)=CC1=O`, the TGI [1] is reported as over 100 µM, the TGI [2] is reported as over 100 µM and the TGI [3] is reported as over 100 µM. The TGI [4] was over 100 µM, the TGI [5] was over 100 µM and the TGI [6] was over 100 µM. For the same compound, the TGI [7] was over 100 µM, the TGI [9] was over 100 µM and the TGI [10] was over 100 µM. The TGI [11] was over 100 µM, the TGI [12] was over 100 µM and the TGI [13] was over 100 µM. It also gave a TGI [14] of over 100 µM, a TGI [15] of over 100 µM and a TGI [16] of over 100 µM. For the same compound, the TGI [17] was over 100 µM, the TGI [18] was over 100 µM and the TGI [19] was over 100 µM.
With `CCOC(=O)C(C)c1nc2ccc(C(F)(F)F)cc2[nH]c1=O` (stereo not drawn) the TGI [1] was over 100 µM, the TGI [2] was over 100 µM and the TGI [3] was over 100 µM. The TGI [4] was over 100 µM, the TGI [5] was 69.9 µM and the TGI [6] was over 100 µM. It also gave a TGI [7] of over 100 µM, a TGI [8] of over 100 µM and a TGI [9] of over 100 µM. The TGI [10] was over 100 µM, the TGI [11] was over 100 µM and the TGI [12] was over 100 µM. It also gave a TGI [13] of over 100 µM, a TGI [14] of over 100 µM and a TGI [15] of over 100 µM. The TGI [16] was over 100 µM, the TGI [17] was over 100 µM and the TGI [18] was over 100 µM. It also gave a TGI [19] of over 100 µM.
`Cc1ccc(O)c(C2=CC(c3cccc(Br)c3)SC(N)=N2)c1` (stereo not drawn) gave a TGI [1] of 33.4 µM, a TGI [2] of 32 µM and a TGI [3] of 52.2 µM. For the same compound, the TGI [4] was 76.3 µM, the TGI [5] was 87.9 µM and the TGI [6] was 35.9 µM. The TGI [8] was 47.1 µM, the TGI [9] was 60.4 µM and the TGI [10] was 88.3 µM. For the same compound, the TGI [11] was 83.2 µM, the TGI [12] was 63.4 µM and the TGI [13] was 59.9 µM. For the same compound, the TGI [14] was over 100 µM, the TGI [15] was 50.1 µM and the TGI [16] was 75.6 µM. It also gave a TGI [17] of over 100 µM, a TGI [18] of 37.2 µM and a TGI [19] of 49.8 µM.
`COC(=O)/C=C(\S/C=C(/c1ccccc1)N1CCn2c(C(=O)c3ccccc3)c(C(=O)OC)c(C(=O)OC)c21)C(=O)OC` gave a TGI [1] of over 10 µM, a TGI [2] of over 10 µM and a TGI [3] of over 10 µM. For the same compound, the TGI [4] was over 10 µM, the TGI [5] was 5.91 µM and the TGI [6] was 5 µM. The TGI [7] was over 10 µM, the TGI [8] was 4.67 µM and the TGI [9] was 4.73 µM. For the same compound, the TGI [10] was over 10 µM, the TGI [11] was over 10 µM and the TGI [12] was 5.64 µM. For the same compound, the TGI [13] was over 10 µM, the TGI [14] was 2.03 µM and the TGI [15] was over 10 µM. For the same compound, the TGI [16] was over 10 µM, the TGI [17] was over 10 µM and the TGI [18] was over 10 µM. The TGI [19] was over 10 µM.
For `N#CCN(CC#N)C1CC=CCC1N(CC#N)CC#N` (stereo not drawn), the TGI [1] was over 100 µM, the TGI [2] was over 100 µM and the TGI [3] was over 100 µM. For the same compound, the TGI [4] was over 100 µM, the TGI [5] was over 100 µM and the TGI [6] was over 100 µM. The TGI [8] was over 100 µM, the TGI [9] was over 100 µM and the TGI [10] was over 100 µM. For the same compound, the TGI [11] was over 100 µM, the TGI [12] was over 100 µM and the TGI [13] was over 100 µM. It also gave a TGI [14] of over 100 µM, a TGI [15] of over 100 µM and a TGI [16] of over 100 µM. It also gave a TGI [17] of over 100 µM, a TGI [18] of over 100 µM and a TGI [19] of over 100 µM.
`O=C(Nc1nnc(-c2c(Cl)c(Cl)c(Cl)c(Cl)c2-c2nc3cc(C(=O)c4ccccc4)ccc3[nH]2)o1)c1ccc(Cl)cc1` gave a TGI [1] of over 100 µM, a TGI [2] of 39.9 µM and a TGI [3] of over 100 µM. The TGI [4] was over 100 µM, the TGI [5] was over 100 µM and the TGI [6] was over 100 µM. The TGI [7] was 43.4 µM, the TGI [8] was over 100 µM and the TGI [9] was over 100 µM. It also gave a TGI [10] of over 100 µM, a TGI [11] of over 100 µM and a TGI [12] of over 100 µM. The TGI [13] was over 100 µM, the TGI [14] was over 100 µM and the TGI [15] was 54.2 µM. The TGI [16] was over 100 µM, the TGI [17] was over 100 µM and the TGI [18] was over 100 µM.

Reference: PubChem BioAssay (NCI)
